From patent US20230115176A1 (Ra Pharmaceuticals, Inc., priority 2019, published 2023)
≈ marks a conversion by molar mass, not a printed value.

Tests used:
Human C5 [1] = target: T1, Human C5 (Homo sapiens, UniProt P01031); assay: Red blood cell (RBC) hemolysis assay, luminescent (Example 28, Table 32); format: cell-based; details: sheep EA cells, 1.5% C5-depleted human serum, 0.5 nM human C5, 1 hour at 37° C., luminescence (Table 32)
T1 construct: purchased Complement Technology

purified human C5 = purified human C5 (Homo sapiens, UniProt P01031); assay: Red blood cell (RBC) hemolysis assay, optical, absorbance 412 nm (Example 10, Table 19); format: cell-based; details: antibody-sensitized sheep erythrocytes, […] human C5 depleted sera, 0.5 nM purified human C5, absorbance 412 nm; read-out: RBC Hemolysis IC50
Chain of purified human C5 (P01031 19-1676): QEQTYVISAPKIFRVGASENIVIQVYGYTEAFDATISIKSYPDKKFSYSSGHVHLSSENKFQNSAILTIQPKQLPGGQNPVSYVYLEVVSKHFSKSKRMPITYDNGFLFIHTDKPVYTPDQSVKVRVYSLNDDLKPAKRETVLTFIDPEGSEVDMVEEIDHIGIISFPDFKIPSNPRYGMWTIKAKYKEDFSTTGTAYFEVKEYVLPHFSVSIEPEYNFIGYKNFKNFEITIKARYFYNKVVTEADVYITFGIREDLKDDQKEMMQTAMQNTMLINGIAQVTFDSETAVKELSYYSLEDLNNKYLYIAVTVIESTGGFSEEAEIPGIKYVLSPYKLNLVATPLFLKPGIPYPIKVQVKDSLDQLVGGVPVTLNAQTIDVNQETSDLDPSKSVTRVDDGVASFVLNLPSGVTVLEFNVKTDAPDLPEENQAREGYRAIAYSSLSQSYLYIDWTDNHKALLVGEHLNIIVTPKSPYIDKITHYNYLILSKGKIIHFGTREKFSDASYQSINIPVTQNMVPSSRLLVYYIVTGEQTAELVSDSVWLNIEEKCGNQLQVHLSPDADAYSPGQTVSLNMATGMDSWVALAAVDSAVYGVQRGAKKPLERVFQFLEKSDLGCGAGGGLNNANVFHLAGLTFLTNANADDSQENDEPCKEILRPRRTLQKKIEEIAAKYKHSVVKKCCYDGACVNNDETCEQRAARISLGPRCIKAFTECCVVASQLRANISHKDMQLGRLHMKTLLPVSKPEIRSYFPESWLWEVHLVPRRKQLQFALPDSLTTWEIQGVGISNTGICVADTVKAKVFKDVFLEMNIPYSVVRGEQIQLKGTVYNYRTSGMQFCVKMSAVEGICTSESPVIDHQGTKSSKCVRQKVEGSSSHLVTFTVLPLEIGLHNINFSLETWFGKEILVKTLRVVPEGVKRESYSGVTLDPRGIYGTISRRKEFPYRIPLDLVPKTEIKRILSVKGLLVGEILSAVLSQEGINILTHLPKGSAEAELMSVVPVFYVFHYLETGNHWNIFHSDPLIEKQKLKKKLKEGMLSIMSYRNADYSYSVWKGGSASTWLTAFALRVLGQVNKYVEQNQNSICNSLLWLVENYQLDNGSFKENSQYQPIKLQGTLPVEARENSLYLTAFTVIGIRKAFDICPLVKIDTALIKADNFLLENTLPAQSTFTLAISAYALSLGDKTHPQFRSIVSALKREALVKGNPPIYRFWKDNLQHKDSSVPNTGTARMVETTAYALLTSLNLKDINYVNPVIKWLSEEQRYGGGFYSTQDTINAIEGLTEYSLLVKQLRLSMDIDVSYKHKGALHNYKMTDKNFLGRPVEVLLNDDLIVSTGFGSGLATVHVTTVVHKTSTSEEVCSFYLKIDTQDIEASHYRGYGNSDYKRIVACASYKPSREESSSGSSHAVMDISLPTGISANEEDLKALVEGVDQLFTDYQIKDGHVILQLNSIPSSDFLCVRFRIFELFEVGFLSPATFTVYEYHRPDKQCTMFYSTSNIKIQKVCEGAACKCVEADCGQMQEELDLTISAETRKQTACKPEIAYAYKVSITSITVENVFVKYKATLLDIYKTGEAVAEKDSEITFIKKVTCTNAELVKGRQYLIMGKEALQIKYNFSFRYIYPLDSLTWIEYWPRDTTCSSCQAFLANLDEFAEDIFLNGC

Human C5 [2] = target: T1, Human C5; assay: Red blood cell (RBC) hemolysis assay, luminescent (Example 13, Table 22); format: cell-based; details: sheep EA cells, […] C5-depleted human serum, 0.5 nM human C5, 1 hour 37° C., luminescence
From the text: Compound CU0136 is a racemic mixture of Compound CU0186 and CU0187. Numbers in parenthesis following compound numbers indicate alternate enantiomers (as distinguished by retention time during chromatographical separation).

[3] = Kinetic solubility in PBS pH 7.4, HPLC-UV (Example 21, Table 27); format: physicochemical; details: phosphate buffered saline, aqueous buffer, kinetic from dmso stock, 0.5 M PBS, shaken minimum 24 h at approximately 25° C., HPLC-UV 270 nm
Experimental: Compounds were analyzed for kinetic solubility values using a standard kinetic solubility assay format. First, test compounds were dissolved in DMSO (Aldrich Chemical Co., Milwaukee, Wis., USA) at a concentration of 0.010 mol/L and used to prepare standard calibrators in DMSO solution. 500.0 μM, 250.0 μM, 125.0 μM, 62.5 μM, 31.2 μM, and 15.6 μM standards were prepared in a Greiner UV-Star clear V-bottom 96-well plate (Greiner-Bio One, Germany) for generating a standard curve. Using Alfa Aesar's Sodium phosphate, 0.2 M buffer solution, pH 7.4 (Alfa Aesar, Haverhill, Mass., USA), aqueous phosphate buffered saline (PBS) was prepared by diluting with Milli-Q water for a final concentration of 0.05 M. The pH of the solution was adjusted to 7.4±0.1 using 0.1 M hydrochloric acid (Fisher Scientific Waltham, Mass., USA) or 0.1 M aqueous sodium hydroxide (Fisher Scientific Waltham, Mass., USA).
10 μL of 0.010 mol/L DMSO test compound stock solutions were pipetted to separate 1.5 mL centrifuge tubes in triplicate. To these tubes, 190 μl of 0.05 M PBS was added. Each tube was gently vortexed for 5 sec. The tubes were shaken for a minimum of 24 h at approximately 25° C. After shaking, the solutions were transferred to 0.5 mL centrifuge filter tubes (MilliporeSigma, Burlington, Mass., USA) and centrifuged at 10,000 rpm for 5 min. After centrifugation, supernatants were collected and used for compound concentration analysis.
Compound concentrations in each solution were determined using high pressure liquid chromatography (HPLC) with ultraviolet (UV) detection and comparison with external standards. For HPLC, a Waters Acquity CSH Phenyl-Hexyl column (2.1 mm×50 mm, 1.7 μm) was used together with a generic gradient method on a Waters H-class system equipped with a diode array detector: Solvent A=0.1% formic acid in water, Solvent B=0.1% formic acid in acetonitrile (MilliporeSigma, Burlington, Mass., USA), flow=0.65 mL/min, (t=0 min: 95% A-5% B, t=4.75 min: 0% A-100% B, t=4.85 min: 0% A-100% B, t=4.86 min: 95% A-5% B, t=5 min: 95% A-5% B). UV quantifications were performed at 270 nm. Solution concentrations were calculated using Microsoft Excel.

T1 sequence (P01031 19-1676): as above

Row | solubility kinetic [3] | Structure (SMILES) | IC50 (Human C5 [1]) | IC50 (purified human C5) | IC50 (Human C5 [2])
1 | – | CCCCCOc1cc(N2C[C@H](C)CN(Cc3ccc(CC(=O)N(C)C)cc3OC)C2=O)ccc1OC [SC0209] | 12.6 nM | – | –
2 | – | CCCCCOc1cc(N2CC[C@H](C)N(Cc3cccc4c3c(Cl)c(C)n4CC(=O)N(C)C)C2=O)ccc1OC [SC0132] | 1.7 nM | – | –
3 | – | CCCCCOc1cc(N2C[C@@H](CO)CN(Cc3ccc(CC(=O)N(C)C)cc3OC)C2=O)ccc1OC [SC0206] | 11.7 nM | – | –
4 | – | COc1ccc(NC(=O)NCc2ccnc3c2ccn3CCC(=O)O)cc1OCCCC(C)C [Compound C5INH-0399] | – | 619 nM | –
5 | – | COc1ccc(N)cc1CNC(=O)Nc1ccc(OC)c(OCCCC(C)C)c1 [Compound C5INH-0321] | – | 61 nM | –
6 | – | CCCCCOc1cc(N2CC(C)CN(Cc3ccc(CNC(C)=O)cc3OC)C2=O)ccc1OC (centres unmarked) [SC0198] | 9.7 nM | – | –
7 | – | COc1cc(CC(=O)N[C@@H]2CCNC2)ccc1CN1C(=O)N(c2ccc(OC)c(OCCCC3CC3)c2)CC[C@@H]1C [SC0166] | 3.1 nM | – | –
8 | – | COc1ccc(NC(=O)CN2CCOCC2)cc1CNC(=O)Nc1ccc(OC)c(OCCCC(C)C)c1 [Compound C5INH-0533] | – | 671 nM | –
9 | – | COc1ccc(NC(=O)NCc2cccc3ccsc23)cc1OCCCC(C)C [Compound C5INH-0294] | – | 343 nM | –
10 | – | COc1cc(CNC(=O)C(C)(C)C)c(NC(=O)NCc2ccnc3[nH]ccc23)cc1OCCCC(C)C [Compound C5INH-0509] | – | 286 nM | –
11 | – | COc1ccc(NC(=O)NCc2cccc3c2OCCO3)cc1OCCCC(C)C [Compound C5INH-0543] | – | 373 nM | –
12 | – | COc1ccc(NC(=O)NC(C(=O)NO)c2cccc(OC)c2O)cc1OCCCC(C)C (centres unmarked) [Compound C5INH-0512] | – | 41.5 nM | –
13 | – | CNC(=O)c1cccc(CNC(=O)Nc2ccc(OC)c(OCCCC(C)C)c2)c1 [Compound C5INH-0319] | – | 793 nM | –
14 | 466 µM (≈ 272 µg/mL) | CCCCCOc1cc(N2CCCN(Cc3ccc(CC(=O)N4CCO[C@@H](COC)C4)cc3OC)C2=O)ccc1OC [CU0224] | – | – | 15.4 nM
15 | – | COc1ccc(NC(=O)NCc2ccnc3c2ccn3Cc2ccncc2)cc1OCCCC(C)C [Compound C5INH-0540] | – | 432 nM | –
16 | 22 µM (≈ 13.1 µg/mL) | COc1ccc(N2CCCN(Cc3ccnc4c3ccn4CC(=O)N(C)C)C2=O)cc1OCCCC(F)(F)C(F)(F)F [CU0256] | – | – | 62.7 nM
17 | 423 µM (≈ 228 µg/mL) | CCCCCOc1cc(N2CCCN(Cc3ccc(CCN4CCN(C)CC4)cc3OC)C2=O)ccc1OC [CU0178] | – | – | 26.7 nM
18 | 287 µM (≈ 165 µg/mL) | CCCCCOc1cc(N2CCCN(Cc3cccc4c3ccn4CC(=O)N3CCN(C)C(=O)C3)C2=O)ccc1OC [CU0246] | – | – | 10.6 nM
19 | – | COc1ccc(NC(=O)NCc2ccnc(NCCCN(C)C)c2OC)cc1OCCCC(C)C [Compound C5INH-0532] | – | 218 nM | –
20 | – | COc1ccc(NC(=O)Nc2ccc3cc[nH]c3c2)cc1OCCCC(C)C [Compound C5INH-0513] | – | 3320 nM | –
21 | 209 µM (≈ 123 µg/mL) | COc1cc(CC(=O)N(C)C)ccc1CN1CCCN(c2ccc(OC)c(OCCCC(F)(F)C(F)(F)F)c2)C1=O [CU0214] | – | – | 21.1 nM
22 | 200 µM (≈ 115 µg/mL) | CCCCCOc1cc(N2CCCN(Cc3cccc4c3ccn4CC(=O)NC3CCNC(=O)C3)C2=O)ccc1OC (centres unmarked) [CU0244] | – | – | 6.7 nM
23 | – | COc1ccc(OCCCC(C)C)cc1NC(=O)NC(CO)c1ccccc1 (centres unmarked) [Compound C5INH-0487] | – | 824 nM | –
24 | 389 µM (≈ 172 µg/mL) | CCCCCOc1cc(N2CCCN(Cc3ccc(CN)cc3OC)C2=O)ccc1OC [CU0201] | – | – | 7.4 nM
25 | 286 µM (≈ 150 µg/mL) | COc1cc(CC(=O)N(C)C)ccc1CN1CCCN(c2ccc(OC)c(OCCC[C@H]3C[C@H]3C)c2)C1=O (racemic) [CU0226] | – | – | 15.7 nM
26 | 436 µM (≈ 264 µg/mL) | CCCCCOc1cc(N2CCCN(Cc3ccnc4c3ccn4CC(=O)NC3CCN(C(C)C)CC3)C2=O)ccc1OC [CU0255] | – | – | 19.4 nM
27 | – | COc1ccc(NC(=O)NCc2ccnc3c2ccn3CC(=O)N2CCCCC2)cc1OCCCC(C)C [Compound C5INH-0507] | – | 185 nM | –

Row | solubility kinetic [3] | Structure (SMILES) | IC50 (Human C5 [1]) | IC50 (purified human C5) | IC50 (Human C5 [2])
28 | 348 µM (≈ 208 µg/mL) | CCCCCOc1cc(N2CCCN(Cc3ccc(CC(=O)N4CCO[C@@H](CN(C)C)C4)cc3OC)C2=O)ccc1OC (stereo in doubt) [CU0186] | – | – | 18.8 nM
29 | – | COc1ccc(NC(=O)NCc2ccnc3c2ccn3CCN2CCOCC2)cc1OCCCC(C)C [Compound C5INH-0370] | – | 209 nM | –
30 | 417 µM (≈ 249 µg/mL) | CCCCCOc1cc(N2CCCN(Cc3ccc(CC(=O)N4CCO[C@H](CN(C)C)C4)cc3OC)C2=O)ccc1OC (stereo in doubt) [CU0187] | – | – | 14.8 nM
31 | – | COc1ccc(NC(=O)N2CCCC2c2ccccc2OC)cc1OCCCC(C)C (centres unmarked) [Compound C5INH-0371] | – | 67.6 nM | –
32 | 112 µM (≈ 57 µg/mL) | CCCCCOc1cc(N2CCCN(Cc3ccc(Cc4nnnn4C)cc3OC)C2=O)ccc1OC [CU0211] | – | – | 15.6 nM
33 | 462 µM (≈ 241 µg/mL) | CCCCCOc1cc(N2CCCN(Cc3ccnc4c3c(C)cn4CC(=O)N(C)C)C2=O)ccc1OC [CU0258] | – | – | 7.5 nM
34 | – | COc1ccc(NC(=O)NCc2ccnc3c2ccn3CC(=O)N2CCOCC2)cc1OCCCC(C)C [Compound C5INH-0508] | – | 72 nM | –
35 | 58 µM (≈ 25.7 µg/mL) | COc1ccc(F)cc1CN1CCCN(c2ccc(OC)c(OCCC3CCC3)c2)C1=O [CU0154] | – | – | 22.6 nM
36 | 17 µM (≈ 9.35 µg/mL) | COc1cc(CC(=O)N(C)C)ccc1CN1CCCN(c2ccc(OC)c(OCC[C@@H]3C[C@@H]4CC[C@H]3C4)c2)C1=O [CU0213] | – | – | 20.4 nM
37 | 77 µM (≈ 41.3 µg/mL) | CCCCCOc1cc(N2CCCN(Cc3ccc(CNC(=O)c4cocn4)cc3OC)C2=O)ccc1OC [CU0161] | – | – | 22.9 nM
38 | – | COc1ccc(NC(=O)NCc2ccc(CN3CCN(C)CC3)cc2)cc1OCCCC(C)C [Compound C5INH-0324] | – | 551 nM | –
39 | 368 µM (≈ 213 µg/mL) | CCCCCOc1cc(N2CCCN(Cc3ccc(CC(=O)N4CCN=C(N(C)C)C4)cc3OC)C2=O)ccc1OC [CU0173] | – | – | 11.4 nM
40 | < 10 µM | CCCCCOc1cc(N2CCCN(Cc3cccc4c3ccn4CC(=O)NC3CNC(=O)C3)C2=O)ccc1OC (centres unmarked) [CU0243] | – | – | 5.5 nM
41 | – | COc1cc(CNC(=O)c2ccccc2)c(NC(=O)NCc2ccnc3[nH]ccc23)cc1OCCCC(C)C [Compound C5INH-0510] | – | 119 nM | –
42 | 139 µM (≈ 74.7 µg/mL) | CCCCCOc1cc(N2CCCN(Cc3ccc(CCN4CCCCC4=O)cc3OC)C2=O)ccc1OC [CU0190] | – | – | 41.4 nM
43 | > 500 µM | CCCCCOc1cc(N2CCCN(Cc3ccc(CC(=O)N4CCO[C@H](COC)C4)cc3OC)C2=O)ccc1OC [CU0196] | – | – | 21.1 nM
44 | – | COc1ccc(NC(=O)NCc2ccnc3c2ccn3CCN2CCCS2(=O)=O)cc1OCCCC(C)C [Compound C5INH-0411] | – | 618 nM | –
45 | – | COc1ccc(NC(=O)NCc2c(F)cnc3c2ccn3CC(=O)N(C)C)cc1OCCCC(C)C [Compound C5INH-0515] | – | 1600 nM | –
46 | 366 µM (≈ 231 µg/mL) | COc1cc(CC(=O)NC2CCN(C(C)C)CC2)ccc1CN1CCCN(c2ccc(OC)c(OCCCC(C)(F)F)c2)C1=O [CU0141] | – | – | 13.1 nM
47 | 142 µM (≈ 77.9 µg/mL) | CCCCCOc1cc(N2CCCN(Cc3cccc4c3ccn4CC(=O)NC3(C)COC3)C2=O)ccc1OC [CU0245] | – | – | 12.2 nM
48 | – | COc1ccc(NC(=O)NCc2cccc3cn[nH]c23)cc1OCCCC(C)C [Compound C5INH-0448] | – | 4290 nM | –
49 | 52 µM (≈ 26.4 µg/mL) | CCCCCOc1cc(N2CCCN(Cc3ccc(Cc4nnn(C)n4)cc3OC)C2=O)ccc1OC [CU0212] | – | – | 23.6 nM
50 | 73 µM (≈ 34.3 µg/mL) | CCCCCOc1cc(N2CCCN(Cc3ccc(CC(N)=O)cc3OC)C2=O)ccc1OC [CU0188] | – | – | 19.9 nM
51 | 415 µM (≈ 262 µg/mL) | CCC(F)(F)CCOc1cc(N2CCCN(Cc3ccc(CC(=O)NC4CCN(C(C)C)CC4)cc3OC)C2=O)ccc1OC [CU0207] | – | – | 13.1 nM
52 | 376 µM (≈ 228 µg/mL) | CCCCCOc1cc(N2CCCN(Cc3cccc4c3ccn4CC(=O)N3CCOC(CN(C)C)C3)C2=O)ccc1OC (centres unmarked) [CU0247] | – | – | 9.8 nM
53 | 333 µM (≈ 196 µg/mL) | CCCCCOc1cc(N2CCCN(Cc3cccc4c3ccn4CC(=O)N3CCN=C(N(C)C)C3)C2=O)ccc1OC [CU0239] | – | – | 11.2 nM
